For 18 compounds, IC50 results are on record in US8198273B2, “Compounds and methods for kinase modulation, and indications therefor” (Plexxikon Inc., priority 2009, dated 2012).

A word on the IC50: it is the point on the concentration scale where inhibition reaches its midpoint.

Series [1] deals with SW620 colon adenocarcinoma cells (wild-type B-RAF). Briefly: SW620 cell growth inhibition (ATPlite). It counts as cell-based. As to conditions: Homo sapiens, SW-620, 72 h; SW620, 3 days incubation. The procedure, abridged: (§1)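 ATPlite luminescence, taken as a cell-number measure, gave IC50 values after a 3-day 37° C, 5% CO2 incubation. Compounds were tested as 8-point threefold titrations, highest final concentration 10 μM, added to cells seeded the day before.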
(In general: In ATP-based viability assays light output follows the ATP content of the culture.)

Series [2] has as its system COLO205 colon adenocarcinoma cells (B-Raf V600E). In words: COLO205 cell growth inhibition (ATPlite). It counts as cell-based. The note with it: Homo sapiens, COLO 205, 72 h; COLO205, 3 days incubation. The method in brief: as §1
Series [3] deals with SKMEL2 melanoma cells (Ras mutation). Briefly: SKMEL2 cell growth inhibition (ATPlite). It counts as cell-based. As to conditions: Homo sapiens, SK-MEL-2, 72 h; SKMEL2, 3 days incubation. The method in brief:
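SKMEL2 cells seeded at 2,000 per well overnight, then exposed to an 8-point 1:3 compound titration (top 10 μM final) for 3 days at 37 °C. ATPlite luminescence used as a measure of cell number to derive IC50.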

The target in a further series is T1, CYP1A2 (Homo sapiens, UniProt P05177).
T1 sequence (P05177 1-516): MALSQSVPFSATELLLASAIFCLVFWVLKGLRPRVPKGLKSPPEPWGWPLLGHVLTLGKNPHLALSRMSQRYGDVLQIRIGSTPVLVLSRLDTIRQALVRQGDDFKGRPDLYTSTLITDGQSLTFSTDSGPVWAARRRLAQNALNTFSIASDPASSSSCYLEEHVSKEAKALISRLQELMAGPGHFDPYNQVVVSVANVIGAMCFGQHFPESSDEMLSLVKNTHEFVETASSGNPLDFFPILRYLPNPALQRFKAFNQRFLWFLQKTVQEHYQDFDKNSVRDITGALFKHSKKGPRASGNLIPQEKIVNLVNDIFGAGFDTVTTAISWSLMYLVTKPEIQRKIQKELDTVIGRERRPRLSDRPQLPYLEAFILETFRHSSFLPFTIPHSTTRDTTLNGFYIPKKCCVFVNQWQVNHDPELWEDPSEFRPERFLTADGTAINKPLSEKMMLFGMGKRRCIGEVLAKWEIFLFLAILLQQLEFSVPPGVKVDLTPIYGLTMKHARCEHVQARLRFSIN
In words: CYP1A2 inhibition (fluorescent substrate). It counts as in vitro ADME. As to conditions: CYP1A2, CEC substrate; read-out: Cyp IC50 1A2. On the procedure: CYP (Cytochrome P450) enzymes are the major drug metabolizing enzymes present in the liver. The inhibition of CYP enzyme activity (IC50) for each of CYP1A2, CYP2C19, CYP2C9, CYP2D6, CYP3A4(BFC) and CYP3A4(BQ) is determined for compounds, where inhibition of metabolism of a known substrate leads to a decrease in the fluorescence of the metabolized product. The fluorescence of the product is monitored as a function of compound concentration.
Compounds are dissolved in dimethyl sulfoxide to a concentration of 100 mM. These are diluted 1 μL into 82 μL of acetonitrile. […] These are then serially diluted 1:1 (160 μL to 160 μL co-factor mix) for a total of 10 points. A 10 μL aliquot of this final mixture is dispensed into 384 well assay plates and incubated for 10 minutes at 37° C. […] Assay plates are incubated at 37° C. […] The signal versus compound concentration is used to determine the IC50. The enzymes and substrates for this assay are obtained from BD Biosciences.

As for `O=C(c1c(F)ccc(NS(=O)(=O)c2cc(F)ccc2F)c1F)c1c[nH]c2ncc(Cl)cc12` [P-2002, N-[3-(5-Chloro-1H-pyrrolo[2,3-b]pyridine-3-carbonyl)-2,4-difluoro-phenyl]-2,5-difluoro-benzenesulfonamide], the IC50 in series [1] is less than 20 µM; in series [2] it was less than 1000 nM; in series [3], more than 10 µM; on CYP1A2 it was more than 10 µM.
On to `COc1cnc2[nH]cc(C(=O)c3c(F)ccc(NS(=O)(=O)c4ccccc4F)c3F)c2c1` [P-2009, N-[2,4-Difluoro-3-(5-methoxy-1H-pyrrolo[2,3-b]pyridine-3-carbonyl)-phenyl]-2-fluoro-benzenesulfonamide], for which the IC50 in series [1] is more than 10 µM; in series [2], less than 5000 nM; in series [3] it was more than 10 µM; on CYP1A2, more than 10 µM.
In the case of `COc1cnc2[nH]cc(C(=O)c3c(F)ccc(NS(=O)(=O)c4cc(F)ccc4F)c3F)c2c1` [P-2010, N-[2,4-Difluoro-3-(5-methoxy-1H-pyrrolo[2,3-b]pyridine-3-carbonyl)-phenyl]-2,5-difluoro-benzenesulfonamide], the concentration for half-maximal inhibition (IC50) is more than 10 µM in series [1], less than 1000 nM in series [2], more than 10 µM in series [3] and more than 10 µM at CYP1A2.
For the compound `N#Cc1cnc2[nH]cc(C(=O)c3c(F)ccc(NS(=O)(=O)c4ccccc4F)c3F)c2c1` [P-2011, N-[3-(5-Cyano-1H-pyrrolo[2,3-b]pyridine-3-carbonyl)-2,4-difluoro-phenyl]-2-fluoro-benzenesulfonamide], the IC50 in series [1] is more than 10 µM; in series [2] it was less than 1000 nM; in series [3] it was more than 10 µM; on CYP1A2, more than 10 µM.
In the case of `N#Cc1ccnc2[nH]cc(C(=O)c3c(F)ccc(NS(=O)(=O)c4ccccc4F)c3F)c12` [P-2020, N-[3-(4-Cyano-1H-pyrrolo[2,3-b]pyridine-3-carbonyl)-2,4-difluoro-phenyl]-2-fluoro-benzenesulfonamide], the IC50 (in series [1]; in series [3]; on CYP1A2) was more than 10 µM in each case.
Regarding `N#Cc1ccnc2[nH]cc(C(=O)c3c(F)ccc(NS(=O)(=O)c4c(F)cccc4F)c3F)c12` [P-2037, N-[3-(4-Cyano-1H-pyrrolo[2,3-b]pyridine-3-carbonyl)-2,4-difluoro-phenyl]-2,6-difluoro-benzenesulfonamide], the IC50 (in series [1]; in series [3]; on CYP1A2) was more than 10 µM throughout.
For `N#Cc1cnc2[nH]cc(C(=O)c3cccc(NS(=O)(=O)c4ccccc4F)c3F)c2c1` [P-2051, N-[3-(5-Cyano-1H-pyrrolo[2,3-b]pyridine-3-carbonyl)-2-fluoro-phenyl]-2-fluoro-benzenesulfonamide], the IC50 (in series [1]; in series [3]; on CYP1A2) was more than 10 µM each time.
Take `N#Cc1ccnc2[nH]cc(C(=O)c3c(F)ccc(NS(=O)(=O)c4cccnc4)c3F)c12` [P-2077, Pyridine-3-sulfonic acid [3-(4-cyano-1H-pyrrolo[2,3-b]pyridine-3-carbonyl)-2,4-difluoro-phenyl]-amide]: the half-inhibitory concentration (IC50) (in series [1]; in series [3]; on CYP1A2) was more than 10 µM each time.
In the case of `CCCS(=O)(=O)Nc1ccc(F)c(C(=O)c2c[nH]c3ncc(-c4cnn(Cc5ccccc5)c4)cc23)c1F` [P-2190, Propane-1-sulfonic acid {3-[5-(1-benzyl-1H-pyrazol-4-yl)-1H-pyrrolo[2,3-b]pyridine-3-carbonyl]-2,4-difluoro-phenyl}-amide], the IC50 in series [1] was less than 10 µM; in series [2], less than 1000 nM; at CYP1A2, more than 10 µM.
Taken in the same sequence, the figures for `CCCS(=O)(=O)Nc1ccc(F)c(C(=O)c2c[nH]c3ncc(-c4ccc(C#CCN(CC)CC)nc4)cc23)c1F` [P-2222, Propane-1-sulfonic acid (3-{5-[6-(3-diethylamino-prop-1-ynyl)-pyridin-3-yl]-1H-pyrrolo[2,3-b]pyridine-3-carbonyl}-2,4-difluoro-phenyl)-amide] were more than 10 µM, less than 100 nM and more than 10 µM.
Taken in the same sequence, the figures for `CCCc1ccc(-c2cnc3[nH]cc(C(=O)c4c(F)ccc(NS(=O)(=O)CCC)c4F)c3c2)cn1` [P-2224, Propane-1-sulfonic acid {2,4-difluoro-3-[5-(6-propyl-pyridin-3-yl)-1H-pyrrolo[2,3-b]pyridine-3-carbonyl]-phenyl}-amide] were more than 10 µM, less than 1000 nM and more than 10 µM.
Taken in the same sequence, the figures for `CCCS(=O)(=O)Nc1ccc(F)c(C(=O)c2c[nH]c3ncc(-c4ccc(CCCOC)nc4)cc23)c1F` [P-2226, Propane-1-sulfonic acid (2,4-difluoro-3-{5-[6-(3-methoxy-propyl)-pyridin-3-yl]-1H-pyrrolo[2,3-b]pyridine-3-carbonyl}-phenyl)-amide] were more than 10 µM, less than 100 nM and more than 10 µM.
Turning to `CCCS(=O)(=O)Nc1ccc(F)c(C(=O)c2c[nH]c3ncc(-c4ccc(N5CCCC5)nc4)cc23)c1F` [P-2231, Propane-1-sulfonic acid {2,4-difluoro-3-[5-(6-pyrrolidin-1-yl-pyridin-3-yl)-1H-pyrrolo[2,3-b]pyridine-3-carbonyl]-phenyl}-amide], the IC50 was less than 5 µM in series [1], less than 1000 nM in series [2] and less than 5 µM at CYP1A2.
Regarding `CCCS(=O)(=O)Nc1ccc(F)c(C(=O)c2c[nH]c3ncc(-c4ccc(OCCN5CCOCC5)nc4)cc23)c1F` [P-2232, Propane-1-sulfonic acid (2,4-difluoro-3-{5-[6-(2-morpholin-4-yl-ethoxy)-pyridin-3-yl]-1H-pyrrolo[2,3-b]pyridine-3-carbonyl}-phenyl)-amide], the half-maximal inhibitory concentration (IC50) in series [1] was more than 10 µM; in series [2], less than 100 nM; on CYP1A2 it was more than 10 µM.
Regarding `CCCS(=O)(=O)Nc1ccc(F)c(C(=O)c2c[nH]c3ncc(-c4ccc(OCCN5CCCC5)nc4)cc23)c1F` [P-2233, Propane-1-sulfonic acid (2,4-difluoro-3-{5-[6-(2-pyrrolidin-1-yl-ethoxy)-pyridin-3-yl]-1H-pyrrolo[2,3-b]pyridine-3-carbonyl}-phenyl)-amide], the IC50 in series [1] is more than 10 µM; in series [2] it was less than 100 nM; at CYP1A2 it was more than 10 µM.
On to `CCCS(=O)(=O)Nc1ccc(F)c(C(=O)c2c[nH]c3ncc(-c4ccc(OCCCN5CCCC5)nc4)cc23)c1F` [P-2235, Propane-1-sulfonic acid (2,4-difluoro-3-{5-[6-(3-pyrrolidin-1-yl-propoxy)-pyridin-3-yl]-1H-pyrrolo[2,3-b]pyridine-3-carbonyl}-phenyl)-amide], for which the IC50 in series [1] was more than 10 µM; in series [2], less than 100 nM; at CYP1A2, more than 10 µM.
Regarding `CCCS(=O)(=O)Nc1ccc(F)c(C(=O)c2c[nH]c3ncc(-c4ccc(OCCCN5CCOCC5)nc4)cc23)c1F` [P-2236, Propane-1-sulfonic acid (2,4-difluoro-3-{5-[6-(3-morpholin-4-yl-propoxy)-pyridin-3-yl]-1H-pyrrolo[2,3-b]pyridine-3-carbonyl}-phenyl)-amide], the IC50 in series [1] is more than 10 µM; in series [2], less than 100 nM; on CYP1A2, more than 10 µM.
Take `C#Cc1cnc2[nH]cc(C(=O)c3c(F)ccc(NS(=O)(=O)CCC)c3F)c2c1` [P-2260, Propane-1-sulfonic acid [3-(5-ethynyl-1H-pyrrolo[2,3-b]pyridine-3-carbonyl)-2,4-difluoro-phenyl]-amide]: the IC50 was more than 10 µM in series [1], less than 1000 nM in series [2] and more than 10 µM at CYP1A2.
